Test results taken from US20240122930A1, “INTEGRIN INHIBITORS AND USES THEREOF IN COMBINATION WITH OTHER AGENTS” (Pliant Therapeutics, Inc., priority 2022, published 2024).
Entries after “also recorded” stand apart in the source; their conditions may differ.

Experiments:
[1] = test system: normal human bronchial epithelial cells; experiment: LAP adhesion assay, normal human bronchial epithelial cells (xCELLigence); format: cell-based; settings: FIG. 3A
Description: Human bronchial epithelial cells are known to express αVβ6 integrin in culture. Human bronchial epithelial cells were prepared for the assay by dissociation with trypsin/EDTA and were then seeded at 20,000 cells per well on 96 well plates (ACEA Bioscience E-plate View, Acea Biosciences; San Diego, CA) previously coated with 5 μg/ml of recombinant human LAP (R&D Systems; Minneapolis, MN) and blocked with 4% bovine serum albumin.

[2] = test system: IPF-derived human lung fibroblasts; experiment: LAP adhesion assay, IPF-derived human lung fibroblasts (xCELLigence); format: cell-based; settings: adhesion to LAP, FIG. 3B
Description: Two latency associated peptide (LAP) adhesion binding assays were devised using primary human lung cells, including normal (healthy) human bronchial epithelial cells and human lung fibroblasts (healthy and IPF).
Human lung fibroblasts derived from normal and IPF lung tissue are known to express αVβ1 integrin. The IPF-derived human lung fibroblasts were prepared for the assay by dissociation with trypsin/EDTA, and were seeded at 20,000 cells per well on 96 well plates (ACEA Bioscience E-plate View, Acea Biosciences; San Diego, CA) previously coated with […] of recombinant human LAP (R&D Systems; Minneapolis, MN) and blocked with 4% bovine serum albumin. Cell index (electrical impedance) was measured to assess cell attachment/spreading every 3 minutes for 24 hours at 37° C./5% CO2 using the xCELLigence RTCA MP Instrument (Acea Biosciences; San Diego, CA). […] In the assay, the IPF-derived human lung fibroblasts were separately incubated with: the αVβ1-selective small molecule inhibitor; the selective antibody αVβ6 inhibitor, 3G9; and Compound 5.

[3] = test system: Type I Collagen gene Col1a1 expression; experiment: Precision cut lung slices, acute bleomycin exposure, Col1a1 expression; format: cell-based, mice (C57BL/6); settings: acute bleomycin PCLS, 3 days culture; integrin inhibitors at IC50 for TGF-beta activation, pan-αV and ALK5 inhibitors at 10× IC50
Description: Mice (C57BL/6) were administered 3 U/kg of bleomycin (Teva Pharmaceuticals; North Wales, PA) on day 0 via oropharyngeal aspiration while under anesthesia. On day 14, precision cut lung slices were obtained. Following euthanization, 2% low gelling temp agarose was injected into the mouse lungs via the trachea. […] The lobes were then subjected to precision slicing to obtain samples for culture using a microtome (Compresstome VF-300-OZ, Precisionary; Greenville, NC). Individual slices were distributed in a multiwell culture plate and cultured for 3 days under control (DMSO) and test compound conditions. The viability of the slices over the course of culturing was confirmed by WST-1 assay of mitochondrial activity.

[4] = test system: patients with idiopathic pulmonary fibrosis (IPF); experiment: Phase 2a randomized, double-blind, placebo-controlled trial in IPF; format: in vivo, human
Excerpt: The exploratory endpoints of the trial measured changes in forced vital capacity (FVC), HRCT-based Quantitative Lung Fibrosis score (QLF), and selected biomarkers over 3 months of treatment.

[5] = test system: PRO-C3, Type III collagen synthesis neoepitope; experiment: Phase 2a clinical trial: serum biomarker PRO-C3; format: in vivo, human; settings: IPF participants, 40 to 320 mg, 4 to 24 weeks
Description: Blank columns represent 40 mg Compound 5 dosage. Grid pattern filled columns represent 80 mg Compound 5 dosage. Diagonal line filled columns represent 160 mg Compound 5 dosage. Dot filled columns represent all participants dosed with Compound 5. […] In FIG. 21, LS refers to Least Squares and SEM refers to Standard Error of Mean.
PRO-C3 and PRO-C6, serum biomarkers of type III and VI collagen synthesis, respectively, were previously shown to be elevated in patients with IPF and associated with progressive disease, according to Respir Res. 2019 Jul. 12; 20(1):148. Doi: 10.1186/s12931-019-1118-7, which is herein incorporated by reference in its entirety. Change from baseline was analyzed using a mixed model for repeated measures with terms for treatment group, visit, baseline value, and treatment-by-visit interaction. LS refers to Least Squares; SE refers to Standard Error.
Med. 2022 June; 10(6):593-602, which is incorporated herein by reference in its entirety. […] Res. 2019 Jul. 12; 20(1):148, which is incorporated herein by reference in its entirety. ** denotes that p<0.01 vs placebo. LS refers to Least Squares. SE refers to Standard Error. Integrin beta-6 data was reported in relative quantitation log2 scale.

pSmad2/Smad2 = experiment: Alveolar (BAL) pSmad2/Smad2, change from baseline at 24 hours (FIG. 12, prior studies); format: in vivo, human; settings: 80 mg and 160 mg, p<0.0001 at both doses
Excerpt: FIG. 12 through FIG. 33 illustrate various details and results from the clinical trial. […] In FIG. 12, BAL refers to bronchoalveolar lavage; pSmad2/Smad2 refers to ratio of phosphorylated Smad2 to total Smad2; and QD refers to once daily. **** refers to p<0.0001.

[6] = test system: participants with idiopathic pulmonary fibrosis (IPF); experiment: Phase 2a clinical trial: quantitative ground glass (QGG) score on HRCT; format: in vivo, human; settings: for QGG score, Change to Week 12, LS Mean (SE): placebo 0.0 (0.63); for QGG score, Change to Week 24, LS Mean (SE): placebo −0.7 (1.66)
[7] = test system: patients with idiopathic pulmonary fibrosis (IPF); experiment: Phase 2a randomized, double-blind, placebo-controlled trial in IPF; format: in vivo, human; settings: FIG. 36
[8] = 12 weeks, 40/80/160 mg once daily

COCCN(CCCCc1ccc2c(n1)NCCC2)CC[C@H](Nc1ncnc2ccccc12)C(=O)O [Compound 5, (S)-4-((2-methoxyethyl) (4-(5,6,7,8-tetrahydro-1,8-naphthyridin-2-yl)butyl)amino)-2-(quinazolin-4-ylamino) butanoic acid]
normal bronchial epithelial cell adhesion to LAP [1]: substantially inhibited
cell adhesion in the IPF-derived lung fibroblasts [2]: substantially inhibited
Type I Collagen gene Col1a1 expression, normalized to DMSO control slices [3]: decreased Type I Collagen gene Col1a1 expression substantially
tolerability ([4]; 40 mg, 80 mg, 160 mg once daily, 12 weeks): well tolerated
increase in FVC relative to baseline ([4]; 80 mg treatment group, 12 weeks): +24.6 mL
severity of most treatment emergent adverse events (TEAE) [4, 8]: mild or moderate
treatment related deaths or drug related serious adverse events (SAE) [4, 8]: No treatment related deaths or drug related serious adverse events
plasma concentrations vs dose ([4]; 40/80/160 mg once daily): generally dose proportional increases
patients who completed 12 weeks of treatment with no discontinuations due to adverse events ([4]; 67 patients treated, 40/80/160 mg once daily): 97%
serious adverse events ([4]; administration of Compound 5 alone, patients): did not result in serious adverse events
serum biomarkers of collagen synthesis ([4]; change from baseline at 4 and 12 weeks vs. placebo, FIG. 33): reduced
treatment-emergent adverse events (TEAEs) ([4]; combinations with nintedanib or with pirfenidone, patients): resulted in treatment-emergent adverse events
reduction in FVC decline over 12 weeks versus placebo ([4]; pooled Compound 5 groups): approximately 80%
circulating biomarkers integrin beta-6 (ITGB6) and Type III collagen synthesis neoepitope (PRO-C3) levels ([4]; relative to the placebo group, FIG. 40): reduced
Serum PRO-C3, change from baseline relative to placebo [5]: decreased; also recorded: reduced; also recorded: dose-dependent reduction
Alveolar pSmad2/Smad2, Percentage Change from Baseline at 24 Hours vs. placebo (pSmad2/Smad2): statistically significant
QGG score, Change to Week 12, LS Mean Diff (SE) vs. Placebo ([6]; 40 mg (n 15)): 1.3 (1.04)
QGG score, Change to Week 12, LS Mean (SE) ([6]; 40 mg (n 15)): 1.3 (0.82)
QGG score, Change to Week 12, LS Mean Diff (SE) vs. Placebo ([6]; 80 mg (n 18)): −1.2 (0.98)
QGG score, Change to Week 12, LS Mean (SE) ([6]; 80 mg (n 18)): −1.2 (0.74)
QGG score, Change to Week 12, LS Mean Diff (SE) vs. Placebo ([6]; 160 mg (n 14)): −0.1 (1.05)
QGG score, Change to Week 12, LS Mean (SE) ([6]; 160 mg (n 14)): 0.0 (0.84)
QGG score, Change to Week 24, LS Mean Diff (SE) vs. Placebo ([6]; 320 mg (n 14)): −1.2 (1.53)
QGG score, Change to Week 24, LS Mean (SE) ([6]; 320 mg (n 14)): −1.8 (1.31)
QGG score, Change to Week 12, LS Mean Diff (SE) vs. Placebo ([6]; 320 mg (n 16)): −0.2 (1.01)
QGG score, Change to Week 12, LS Mean (SE) ([6]; 320 mg (n 16)): −0.2 (0.79)
QGG score, Change to Week 24, LS Mean Diff (SE) vs. Placebo ([6]; All Compound 5 (n 14)): −1.2 (1.53)
QGG score, Change to Week 24, LS Mean (SE) ([6]; All Compound 5 (n 14)): −1.8 (1.31)
QGG score, Change to Week 12, LS Mean Diff (SE) vs. Placebo ([6]; All Compound 5 (n 63)): −0.1 (0.76)
QGG score, Change to Week 12, LS Mean (SE) ([6]; All Compound 5 (n 63)): −0.1 (0.40)
Ground glass scores over a 12-24 week period after treatment ([6]; instant study): decreased or remained stable
patients with FVC improvement at week 12 who maintained improvement in FVC at week 24 [7]: About 89%
